Measurements reported in patent US20220088121A1, “COMPOSITIONS CONTAINING A PEPTIDE ABLE TO STIMULATE THE GPRC6A-DEPENDENT SIGNALING PATHWAY” (Altergon S.A., priority 2019, published 2022).

Columns and labels:
[1] = test system: MA-10 mouse Leydig cell tumour cell lines; test: Testosterone release from MA-10 mouse Leydig-cell tumour cell cultures; type: cell-based; details: experimental models of cell line cultures; Example 1: peptide 10^−6M, 12 hours at 37° C. (FIG. 1)
Protocol: MA-10 mouse Leydig-cell tumour cells, cultured to 90% confluence in 24-well multiwell plates, were stimulated with different agonists for 12 hours at 37° C. under sterile conditions, according to an already validated protocol [Cormier Cell Biol Toxicol. […] The control (CTRL) contained no agonists. The results relate to testosterone release, expressed as ng of testosterone (T) per μg of total protein, obtained from cell extract. […] Significance: *=P<0.05 vs. CTRL.
MA-10 mouse Leydig-cell tumour cells, cultured to 90% confluence in 24-well multiwell plates, were stimulated with different agonists for 12 hours at 37° C. under sterile conditions, according to an already validated protocol [Cormier Cell Biol Toxicol. […] Significance: *, ** and ***=P<0.05, 0.01 and 0.001 respectively vs the baseline control.

[2] = test system: INS-1 rat insulinoma cells; test: Insulin release from INS-1 insulinoma cell cultures; type: cell-based; details: experimental models of cell line cultures
Protocol: INS-1 rat insulinoma cells, cultured to 90% confluence in 24-well multiwell plates, were stimulated with different combinations of secretagogue agonists for 2 hours at 37° C. under sterile conditions, according to an already validated protocol [Hohmeier Diabetes. […] Stimulation with the phosphodiesterase inhibitor IBMX (Gluc 1 mM+IBMX) represents the maximum secretagogue stimulation and positive control of the experiment. […] Significance: *, ** and ***=P<0.05, 0.01 and 0.001 respectively vs the baseline control.

## NMYLPPVPPPPVVPTF [SEQ ID 1]
[1]
  testosterone release: stimulates
[2]
  insulin release: stimulates
